Reference: patent publication US4434788A, “Enhancer of anti-tumor effect” (Yamasa Shoyu Kabushiki Kaisha, priority 1980, dated 1984)
Where two headings read alike, the source gives them in different places.

What was measured:
EMT-6 tumors [1] = assay: Radiosensitizing effect on EMT-6 tumor in mouse, 1500 rad, tumor size and cure; format: in vivo, BALB/c-strain female mice
Acute toxicity test = conditions: mouse, in vivo, ip, ICR mice, male, one week; estimated
Procedure: A quantity of 3'-dGuo was administered intraperitoneally to ICR mice (male, 8-weeks old, 10 mice for each group) in a dose of 500 mg/kg or 1,000 mg/kg, and the mice were subjected to observation for a week.

[2] = tested on: potentially lethal damage repair; assay: PLDR-inhibiting / radiosensitizing activity (general statements)
[3] = tested on: Chinese hamster-HA-1 cells; assay: Plating efficiency of stationary-phase HA-1 cells given enhancer immediately after 1,000 R X-ray (inhibition of PLDR); format: cell-based; conditions: for Plating efficiency after 4 hours: control 2.1; for Plating efficiency after 7 hours: control 3.3
Procedure: (§1) (1) Cells under stationary phase, prepared by planting 2×10^5 cells/well of Chinese hamster-HA-1 cells in a multiwell dish and exchanging cultural medium every day starting on the third day and thereafter were irradiated with 1,000 R of X-rays. Immediately after radiation, 3'-dUrd, and 3'-dGuo in HANKs' balanced salt solution were administered. Then, after elapse of various times, the cells were taken off with trypsin, and a suitable number of cells were transferred into petri dishes for testing colony forming ability and plating efficiencies. The percentages of survival were calculated with corrections by the plating efficiencies with the pharmaceutical agents alone.

[4] = as above; format: cell-based, Chinese hamster; conditions: chinese hamster, ha-1 cells, no irradiation, control 51, read-out: Plating efficiency, treated only with enhancer (after 7 hours)
Procedure: as §1

EMT-6 tumors [5] = assay: Enhancement of the effect of anti-tumor agents on EMT-6 tumor in mouse; format: in vivo, BALB/c-strain mice
Procedure: (1) EMT-6 tumor cells (1×10^6) were inoculated intradermally into the right thighs of BALB/c-strain mice (7 weeks old). On the 10th day after inoculation of the tumor cells and thereafter, various enhancer chemicals in physiological saline solutions were administered intrapenitoneally to the mouse every other day in the indicated doses for respective agents. The pharmaceutical agents of the present invention were administered 30 minutes after administration of the anti-tumor agents. After commencement of the treatment with pharmaceutical agents, the tumor sizes were measured every other day and compared with the control group.

EMT-6 tumors [6] = assay: Radiosensitizing effect on EMT-6 tumor in mouse, cure percentage and TCD50; format: in vivo, BALB/c-strain female mice; conditions: 100 mg/kg i.p. after irradiation; for Cure number/Number treated / Cure percentage: >90 days
Procedure: EMT-6 tumor cells (2×10^5) were inoculated intradermally into the right thighs of BALB/c-strain female mice (8 weeks old). When the tumor sizes reached 5.5 to 8.0 mm after inoculation of the tumor cells, irradiation was locally carried out with 1,000 rad to 2,700 rad of 32 MeV electron beam under no anesthesia, and thereafter 3'-dAdo and 3'-dGuo, each dissolved in physiological saline solution, were administered intraperitoneally in a dose of 100 mg/kg. After the treatments, observation was continued for longer than 90 days, and the cure percentages were determined for comparison with the control group. [formula]
(2) TCD50 =50% Tumor control dose

[7] = Irradiation 1500 rad + 3'-dGuo 2.0 mg/mouse, irradiation alone 0%
[8] = Irradiation 1500 rad + 3'-dGuo 2.0 mg/mouse, irradiation alone 0/10

Nc1nc2c(ncn2[C@@H]2O[C@H](CO)C[C@H]2O)c(=O)[nH]1 [3'-dGuo, 3'-deoxyguanosine]
Mean tumor diameter 2 weeks after treatment (EMT-6 tumors [1]; 3'-dGuo 100 mg/kg i.p. after 1500 rad, n = 19, baseline 6.19 ± 0.16 mm, irradiation alone 7.41): 6.82 ± 0.44 mm
Mean tumor diameter 3 weeks after treatment (EMT-6 tumors [1]; 3'-dGuo 100 mg/kg i.p. after 1500 rad, n = 19, baseline 6.19 ± 0.16 mm, irradiation alone 8.29): 4.83 ± 0.80 mm
Diameter ratio 2 weeks after treatment (EMT-6 tumors [1]; 3'-dGuo 100 mg/kg i.p. after 1500 rad, n = 19, irradiation alone 1.09): 1.09 ± 0.06
Diameter ratio 3 weeks after treatment (EMT-6 tumors [1]; 3'-dGuo 100 mg/kg i.p. after 1500 rad, n = 19, irradiation alone 1.17): 0.72 ± 0.12
Volume ratio 2 weeks after treatment (EMT-6 tumors [1]; 3'-dGuo 100 mg/kg i.p. after 1500 rad, n = 19, irradiation alone 1.44): 1.49 ± 0.19
Volume ratio 3 weeks after treatment (EMT-6 tumors [1]; 3'-dGuo 100 mg/kg i.p. after 1500 rad, n = 19, irradiation alone 2.06): 0.92 ± 0.21
Cure (number of mice) (EMT-6 tumors [1]; Irradiation 1500 rad + 3'-dGuo 2.0 mg/mouse, 28 days, irradiation alone 1/10): 6/19
Cure (percent) (EMT-6 tumors [1]; Irradiation 1500 rad + 3'-dGuo 2.0 mg/mouse, 28 days, irradiation alone 10%): 32%
0.5 to less than 1 of volume ratio excluding cure; Tumor regression rate: slow (percent) (EMT-6 tumors [1]; [7]): 18%
Less than 0.5 of volume ratio excluding cure; Tumor regression rate: rapid (percent) (EMT-6 tumors [1]; [7]): 11%
0.5 to less than 1 of volume ratio excluding cure; Tumor regression rate: slow (number) (EMT-6 tumors [1]; [8]): 3/19
Less than 0.5 of volume ratio excluding cure; Tumor regression rate: rapid (number) (EMT-6 tumors [1]; [8]): 2/19
1.0 to less than 2.0 of volume ratio excluding cure; regrowth: slow (number) (EMT-6 tumors [1]; Irradiation 1500 rad + 3'-dGuo 2.0 mg/mouse, irradiation alone 3/10): 6/19
2.0 or more of volume ratio excluding cure; regrowth: rapid (number) (EMT-6 tumors [1]; Irradiation 1500 rad + 3'-dGuo 2.0 mg/mouse, irradiation alone 6/10): 2/19
1.0 to less than 2.0 of volume ratio excluding cure; regrowth: slow (percent) (EMT-6 tumors [1]; Irradiation 1500 rad + 3'-dGuo 2.0 mg/mouse, irradiation alone 30%): 32%
2.0 or more of volume ratio excluding cure; regrowth: rapid (percent) (EMT-6 tumors [1]; Irradiation 1500 rad + 3'-dGuo 2.0 mg/mouse, irradiation alone 60%): 11%
LD50 at 168 h (Acute toxicity test): > 1000 mg/kg
Radiosensitizing activity [2]: excellent radiosensitizing activities
Plating efficiency after 4 hours ([3]; 3'-dGuo 10 μg/ml after 1,000 R): 1.6%
Plating efficiency after 7 hours ([3]; 3'-dGuo 10 μg/ml after 1,000 R): 2.6%
Plating efficiency after 1 hour ([3]; 3'-dGuo 10 μg/ml after 1,000 R, control (0 μg/ml) 1.4): 1.3%
Plating efficiency after 1 hour ([3]; 3'-dGuo 20 μg/ml after 1,000 R, control 1.4): 1.2%
Plating efficiency after 4 hours ([3]; 3'-dGuo 20 μg/ml after 1,000 R): 1.3%
Plating efficiency after 7 hours ([3]; 3'-dGuo 20 μg/ml after 1,000 R): 2.0%
Plating efficiency after 1 hour ([3]; 3'-dGuo 40 μg/ml after 1,000 R, control 1.4): 0.96%
Plating efficiency after 4 hours ([3]; 3'-dGuo 40 μg/ml after 1,000 R): 1.1%
Plating efficiency after 7 hours ([3]; 3'-dGuo 40 μg/ml after 1,000 R): 1.6%
Inhibition of repair (PLDR) after irradiation with X-rays ([3]; HA-1 cells, Table 1): found to inhibit repair (PLDR) after irradiation with X-rays
Toxicity as examined by plating efficiencies ([3]; HA-1 cells, Table 1): Substantially no toxicity was observed
viability at 7 h ([4]; 3'-dGuo 10 μg/ml): 50%
viability at 7 h ([4]; 3'-dGuo 20 μg/ml): 47%
viability at 7 h ([4]; 3'-dGuo 40 μg/ml): 45%
Mean tumor diameter 18 days after commencement of treatment (EMT-6 tumors [5]; 3'-dGuo alone 50 mg/kg × 6, n = 10, before treatment 6.75 ± 1.20, control 11.43 ± 2.30): 10.92 ± 3.23 mm
Mean tumor diameter ratio 18 days after commencement of treatment (EMT-6 tumors [5]; 3'-dGuo alone 50 mg/kg × 6, n = 10, control 1.97 ± 0.40): 1.62 ± 0.48
Mean tumor diameter 7 days after commencement of treatment (EMT-6 tumors [5]; 3'-dGuo alone 50 mg/kg × 8, n = 6, before treatment 6.08 ± 0.69, control 7.38 ± 0.69): 7.45 ± 2.07 mm
Mean tumor diameter 14 days after commencement of treatment (EMT-6 tumors [5]; 3'-dGuo alone 50 mg/kg × 8, n = 6, before treatment 6.08 ± 0.69, control 9.20 ± 1.78): 9.10 ± 2.65 mm
Mean tumor diameter ratio 7 days after commencement of treatment (EMT-6 tumors [5]; 3'-dGuo alone 50 mg/kg × 8, n = 6, control 1.27 ± 0.17): 1.21 ± 0.24
Mean tumor diameter ratio 14 days after commencement of treatment (EMT-6 tumors [5]; 3'-dGuo alone 50 mg/kg × 8, n = 6, control 1.57 ± 0.40): 1.48 ± 0.30
Mean tumor diameter 7 days after commencement of treatment (EMT-6 tumors [5]; ACNU 25 mg/kg × 5 combined with 3'-dGuo 50 mg/kg × 5, n = 7, before treatment 6.23 ± 1.04, control 7.38): 5.14 ± 2.29 mm
Mean tumor diameter 14 days after commencement of treatment (EMT-6 tumors [5]; ACNU 25 mg/kg × 5 combined with 3'-dGuo 50 mg/kg × 5, n = 7, before treatment 6.23 ± 1.04, control 9.20): 4.90 ± 1.94 mm
Mean tumor diameter ratio 7 days after commencement of treatment (EMT-6 tumors [5]; ACNU 25 mg/kg × 5 combined with 3'-dGuo 50 mg/kg × 5, n = 7, control 1.27): 0.80 ± 0.22
Mean tumor diameter ratio 14 days after commencement of treatment (EMT-6 tumors [5]; ACNU 25 mg/kg × 5 combined with 3'-dGuo 50 mg/kg × 5, n = 7, control 1.57): 0.76 ± 0.19
Mean tumor diameter 7 days after commencement of treatment (EMT-6 tumors [5]; ADM 2 mg/kg × 8 combined with 3'-dGuo 50 mg/kg × 8, n = 10, before treatment 6.59 ± 1.14, control 7.38): 6.16 ± 2.00 mm
Mean tumor diameter 14 days after commencement of treatment (EMT-6 tumors [5]; ADM 2 mg/kg × 8 combined with 3'-dGuo 50 mg/kg × 8, n = 10, before treatment 6.59 ± 1.14, control 9.20): 6.30 ± 2.54 mm
Mean tumor diameter ratio 7 days after commencement of treatment (EMT-6 tumors [5]; ADM 2 mg/kg × 8 combined with 3'-dGuo 50 mg/kg × 8, n = 10, control 1.27): 0.92 ± 0.18
Mean tumor diameter ratio 14 days after commencement of treatment (EMT-6 tumors [5]; ADM 2 mg/kg × 8 combined with 3'-dGuo 50 mg/kg × 8, n = 10, control 1.57): 0.94 ± 0.31
Mean tumor diameter 18 days after commencement of treatment (EMT-6 tumors [5]; BLM 25 mg/kg × 4 combined with 3'-dGuo 50 mg/kg × 4, n = 10, before treatment 6.65 ± 0.96, control 11.43): 5.60 ± 1.67 mm
Mean tumor diameter ratio 18 days after commencement of treatment (EMT-6 tumors [5]; BLM 25 mg/kg × 4 combined with 3'-dGuo 50 mg/kg × 4, n = 10, control 1.97): 0.84 ± 0.25
Mean tumor diameter 18 days after commencement of treatment (EMT-6 tumors [5]; FT-207 100 mg/kg × 6 combined with 3'-dGuo 50 mg/kg × 6, n = 11, before treatment 6.39 ± 0.94, control 11.43): 3.18 ± 2.38 mm
Mean tumor diameter ratio 18 days after commencement of treatment (EMT-6 tumors [5]; FT-207 100 mg/kg × 6 combined with 3'-dGuo 50 mg/kg × 6, n = 11, control 1.97): 0.50 ± 0.37
Mean tumor diameter 7 days after commencement of treatment (EMT-6 tumors [5]; araC 50 mg/kg × 8 combined with 3'-dGuo 50 mg/kg × 8, n = 7, before treatment 6.04 ± 0.64, control 7.38): 5.96 ± 1.77 mm
Mean tumor diameter 14 days after commencement of treatment (EMT-6 tumors [5]; araC 50 mg/kg × 8 combined with 3'-dGuo 50 mg/kg × 8, n = 7, before treatment 6.04 ± 0.64, control 9.20): 5.34 ± 1.57 mm
Mean tumor diameter ratio 7 days after commencement of treatment (EMT-6 tumors [5]; araC 50 mg/kg × 8 combined with 3'-dGuo 50 mg/kg × 8, n = 7, control 1.27): 0.97 ± 0.19
Mean tumor diameter ratio 14 days after commencement of treatment (EMT-6 tumors [5]; araC 50 mg/kg × 8 combined with 3'-dGuo 50 mg/kg × 8, n = 7, control 1.57): 0.88 ± 0.21
TCD50 (50% Tumor control dose) (EMT-6 tumors [6]; radiation doses given in rad, control 2400): 1250 rad
TCD50 ratio (EMT-6 tumors [6]; relative to control 1.0): 0.52
Cure number/Number treated (EMT-6 tumors [6]; 1,000 rad, control 1/23): 8/26
Cure percentage (EMT-6 tumors [6]; 1,000 rad, control 4%): 31%
Cure number/Number treated (EMT-6 tumors [6]; 1,500 rad, control 8/44): 21/29
Cure percentage (EMT-6 tumors [6]; 1,500 rad, control 18%): 72%
Cure number/Number treated (EMT-6 tumors [6]; 2,100 rad, control 9/24): 22/28
Cure percentage (EMT-6 tumors [6]; 2,100 rad, control 38%): 79%
Cure number/Number treated (EMT-6 tumors [6]; 2,700 rad, control 13/28): 22/25
Cure percentage (EMT-6 tumors [6]; 2,700 rad, control 47%): 88%
